Experimental data reported in patent US20050192289A1, “Novel cinnamic amides” (Active Biotech AB, priority 2004, published 2005).
pIC50: −log10 of the molar value. Counter-ions that a name gives are not always drawn.

Key:
[1] = target: T1, cloned human CCR1 Chemokine receptor (Homo sapiens, UniProt P32246); assay: In vitro competitive affinity binding assay (displacement of 125I-MIP-1α); conditions: displacement of 125I-MIP-1α from cloned human CCR1 expressed in CHO cells, coated on FlashPlate; 1 hour, ambient temperature
T1 construct: purchased Perkin Elmer 6120525; host or cells: CHO cells
T1 sequence (P32246 1-355): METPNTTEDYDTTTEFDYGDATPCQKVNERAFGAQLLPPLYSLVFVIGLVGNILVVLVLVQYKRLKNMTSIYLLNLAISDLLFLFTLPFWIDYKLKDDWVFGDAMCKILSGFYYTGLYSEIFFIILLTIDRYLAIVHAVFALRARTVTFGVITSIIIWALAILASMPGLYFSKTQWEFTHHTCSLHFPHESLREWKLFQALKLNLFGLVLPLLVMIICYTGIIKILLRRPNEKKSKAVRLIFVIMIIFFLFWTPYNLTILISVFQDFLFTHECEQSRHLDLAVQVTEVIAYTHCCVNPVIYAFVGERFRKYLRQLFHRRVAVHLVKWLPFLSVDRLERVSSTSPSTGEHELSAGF
Source text: In the competitive affinity binding assay, the binding affinity of the compounds for the CCR1 receptor can be determined by measuring their ability to displace ^125I-Mip-1α from the CCR1 receptor.
In vitro Competitive Affinity Binding Assay
• 1. Screen Ready™ Targets: cloned human CCR1 Chemokine receptor, expressed in CHO cells, coated on 96-well FlashPlate® (Perkin Elmer Cat #6120525) • 2. Ligand: ^125I-MIP-1α from Perkin Elmer (specific activity is 2200 Ci/mmol) was reconstituted to 25 μCi/L in H2O. • 3. Assay buffer: 50 mM HEPES, 1 mM CaCl2, 5 mM MgCl2, 0.2% BSA, pH 7.4. • 4. MIP-1α (Peprotech EC Ltd Cat # 300-08) • 5. The compounds of the invention were dissolved in DMSO. A serial dilution was made and ten concentrations of each compound were screened to generate a dose curve from which the IC50 value was determined. Assay Procedure:
Membranes coated on the FlashPlate® were incubated with ^125I-MIP-1α in the presence and absence of different concentrations of compounds at ambient temperature for 1 hour. The radioactivity in each well was determined in a microplate scintillation counter, The non-specific binding was defined by binding in the presence of 1250-fold unlabeled MIP-1α. The assay was performed according to the manufacturer's instruction of Screen Ready™ Targets.

CCR1 receptor = target: T2, CCR1 receptor (Homo sapiens, UniProt P32246); assay: In vitro Ca2+-flux assay on human monocytes (THP-1 cells stimulated with MIP-1α); format: cell-based; conditions: block of MIP-1α mediated Ca2+ mobilisation in THP-1 cells; Fluo-4
T2 construct: host or cells: THP-1
T2 sequence (P32246 1-355): T1 sequence (P32246 1-355)
Description: The binding of Mip-1α at the CCR1 receptor leads to an increase of intracellular calcium levels. The ability of the compounds of the invention to block this biologic response of the CCR1 receptor is determined in the Ca^2+-flux assay.
In vitro Ca^2+-Flux Assay on Human Monocytes
• 1. Cell Culture: • a) THP-1 (ATCC Cat# TIB202) • b) Tissue culture medium: RPMI 1640 with Ultraglutamine 1 supplemented with 10% (v/v) foetal calf serum. This medium is hereinafter referred to as “growth medium”. • 2. Assay buffer: HMSS (Hanks' balanced salts solution), 20 mM HEPES, 1 mM CaCl2, 1 mM MgCl2, 2.5 mM Probenecid, pH 7.4. • 3. Fluo-4AM (Molecular Probes Cat # F14201) • 4. Pluronic® F-127 (Molecular Probes Cat # P-6867) • 5. The compounds of the invention were dissolved in DMSO. A serial dilution was made and nine concentrations of each compound were screened to generate a dose curve from which the IC50 value was determined. • 6. MIP-1α (Peprotech EC Ltd Cat # 300-08) • 7. Victor^2 1420 (Perkin Elmer) • 8. Microlite™ ^2+ (Dynex Cat # 7572) Assay Procedure:
THP-1 cells were grown in T-75 cm^2 flasks in growth medium at 37° C. in 5% CO2. The cells were harvested by centrifugation and resuspended in assay buffer. The cells were then loaded with 5 μM Fluo-4 and 0.02% pluronic acid (final concentrations) at 37° C. in 5% CO2 for 30 min. The excess dye was removed by washing with assay buffer. The cells were resuspended and 10^5 cells/well were added in a Microlite plate containing compounds and then incubated for 15 minutes at 37° C. in 5% CO2. The cells were then stimulated with MIP-1α and changes in intracellular free Ca^2+ concentration were measured with a Victor^2.

[2] = In vivo bioavailability in the mouse (cassette dosing, i.v. or oral); conditions: female mice (SJL/N Tac), nominal dose 1 mg/kg/compound; for half-life / clearance: mouse; for half-life: plasma half-life; for clearance: plasma; for F: oral bioavailability, F=(AUCinf,po/AUCinf,iv)·(Doseiv/Dosepo)
Description: Female mice (SJL/N Tac) were given a single intravenous or oral dose of a mixture of 5 or 6 compounds per cassette (nominal dose: 1 mg/kg/compound) in a solution containing 0.5% N,N′-dimethylacetamide (DMA) and 15% sulfobutyl ether β-cyclodextrin (Captisol®). Blood samples were taken from one mouse per time point and dose group until 24 hour after respective administration. The dose formulations and plasma concentrations of each compound were determined by LC-MS/MS. The pharmacokinetic parameters were determined by non-compartmental analysis using WinNonlin Professional (version 4.0.1). The elimination rate constant, λ, was estimated by linear regression analysis of the terminal slope of the logarithmic plasma concentration-time curve. The area under the plasma concentration-time curve, AUC0-t, was calculated by using the linear/logarithmic trapezoidal rule. The AUCinf was calculated with the residual area estimated as Cz/λ. The calculated plasma concentration at the last time point, Cz, was obtained from the regression equation. The oral bioavailability (F) was calculated as: Foral=(AUCinf,po/AUCinf,iv)·Doseiv/Dosepo). Pharmacodynamic Assays

Row | Compound | pIC50 [1] | pIC50 (CCR1 receptor) | half-life [2] [h] | clearance [2] [mL/min/kg] | F [2] [%]
1 | C[C@@H]1CN(C(=O)/C=C/c2ccc(Cl)c([N+](=O)[O-])c2)[C@@H](C)CN1Cc1ccc(F)cc1 (racemic) [Compound 6.2, (E)-(trans)-3-(4-Chloro-3-nitro-phenyl)-1-[4-(4-fluoro-benzyl)-2,5-dimethyl-piperazne-1-yl]-prop-2-en-1-one] | 7.68 | 8.40 | – | – | –
2 | O=C(/C=C/c1ccc(Cl)cc1Cl)N1CCN(Cc2ccc(Cl)cc2)CC1 [Compound C, 1-(4-chlorobenzyl)-4-(2,4-dichlorocinnamoyl)-piperazine, reference compound] | – | 6.92 | – | – | –
3 | COc1cc(/C=C/C(=O)N2C[C@@H](C)N(Cc3ccc(F)cc3)C[C@@H]2C)cc(OC)c1OC (racemic) [Compound 5.19, (E)-(trans)-1-[4-(4-Fluoro-benzyl)-2,5-dimethyl-piperazine-1-yl]-3-(3,4,5-trimethoxy-phenyl)-prop-2-en-1-one] | 7.77 | 8.10 | – | – | –
4 | C[C@@H]1CN(C(=O)/C=C/c2ccc([N+](=O)[O-])cc2)[C@@H](C)CN1Cc1ccc(F)cc1 (racemic) [Compound 5.5, (E)-(trans)-1-[4-(4-Fluoro-benzyl)-2,5-dimethyl-piperazine-1-yl]-3-(4-nitro-phenyl)-prop-2-en-1-one] | 7.48 | 7.64 | – | – | –
5 | COc1cc(/C=C/C(=O)N2CCN(Cc3ccc(F)cc3)CC2)cc(OC)c1OC [Compound A, 1-[4-(4-Fluoro-benzyl)-piperazine-1-yl]-3-(3,4,5-trimethoxy-phenyl)-prop-2-en-1-one, reference compound] | 6.25 | 6.96 | – | – | –
6 | C[C@@H]1CN(C(=O)/C=C/c2ccc(Cl)cc2Cl)[C@@H](C)CN1Cc1ccc(F)cc1 (racemic) [Compound 5.6, (E)-(trans)-3-(2,4-Dichloro-phenyl)-]-[4-(4-fluoro-benzyl)-2,5-dimethyl-piperazine-1-yl]-prop-2-en-1-one hydrochloride] | – | 7.74 | – | – | –
7 | C[C@@H]1CN(C(=O)/C=C/c2ccc(Cl)c([N+](=O)[O-])c2)[C@@H](C)CN1Cc1ccc(Cl)cc1 (racemic) [Compound 5.2, (E)-(trans)-3-(4-Chloro-3-nitro-phenyl)-1-[4-(4-chloro-benzyl)-2,5-dimethyl-piperazine-1-yl]-prop-2-en-1-one] | 7.41 | 8.22 | – | – | –
8 | O=C(/C=C\c1ccc(Cl)cc1)N1CCN(Cc2ccc(F)cc2)CC1 [Compound 8.2, (Z)-3-(4-Chloro-phenyl)-1-[4-(4-fluoro-benzyl)-piperazine-1-yl]-prop-2-en-1-one, reference compound] | < 6.00 | < 6.00 | – | – | –
9 | C[C@H]1CN(C(=O)/C=C/c2ccc(Cl)cc2)[C@@H](C)CN1Cc1ccc(F)cc1 (racemic) [Compound 9.1, (E)-(cis)-3-(4-Chloro-phenyl)-1-[4-(4-fluoro-benzyl)-2,5-dimethyl-piperazine-1-yl]-prop-2-en-1-one, reference compound] | – | 6.04 | – | – | –
10 | C[C@@H]1CN(C(=O)/C=C\c2ccc(Cl)cc2)[C@@H](C)CN1Cc1ccc(F)cc1 (racemic) [Compound 8.1, (Z)-(trans)-3-(4-Chloro-phenyl)-1-[4-(4-fluoro-benzyl)-2,5-dimethyl-piperazine-1-yl]-prop-2-en-1-one, reference compound] | < 6.00 | 6.68 | – | – | –
11 | O=C(/C=C/c1ccc(Cl)cc1)N1CCN(Cc2ccc(F)cc2)CC1 [B, 3-(4-chloro-phenyl)-1-[4-(4-fluoro-benzyl)-piperazine-1-yl]-prop-2-en-1-one, reference compound] | 6.63 | 7.20 | – | – | –
12 | C[C@@H]1CN(C(=O)/C=C/c2ccc(Cl)cc2)[C@@H](C)CN1Cc1ccc(F)cc1 (racemic) [Compound 6.1, (E)-(trans)-3-(4-Chloro-phenyl)-1-[4-(4-fluoro-benzyl)-2,5-dimethyl-piperazine-1-yl]-prop-2-en-1-one] | 7.85 | 8.05 | 5.3 | 80 | 62
13 | C[C@@H]1CN(C(=O)/C=C/c2ccc3nonc3c2)[C@@H](C)CN1Cc1ccc(F)cc1 (racemic) [Compound 5.13, (E)-(trans)-3-Benzo[2,1,3]oxadiazol-5-yl-1-[4-(4-fluoro-benzyl)-2,5-dimethyl-piperazine-1-yl]-prop-2-en-1-one] | 7.37 | 7.92 | 2.3 | 58.3 | 29
14 | C[C@@H]1CN(Cc2ccc(F)cc2)C[C@H](C)N1C(=O)/C=C/c1ccc(Cl)cc1 [F, reference compound] | < 6.00 | 6.38 | – | – | –
15 | C[C@@H]1CN(C(=O)/C=C/c2cc(Cl)c3nsnc3c2)[C@@H](C)CN1Cc1ccc(F)cc1 (racemic) [Compound 5.46, (E)-(trans)-3-(4-Chloro-benzo[2,1,3]thiadiazol-6-yl)-1-[4-(4-fluorobenzyl)-2,5-dimethyl-piperazine-1-yl]-prop-2-en-1-one] | – | 8.15 | – | – | –
